The results in this text go back to ChEMBL document CHEMBL1255274, “Microdialysis study of imipenem distribution in the peritoneal fluid of rats with experimental acute pancreatitis” (Antimicrob Agents Chemother, 2008).

Common to all, as to format: ADME, organism-based
What all share (parameters): dose 30 mg/kg, route intravenous

A short description of data set [1]: Cmax in pancreatitis Sprague-Dawley rat blood at 30 mg/kg, iv after 30 mins.
Data set [2] in a line: Cmax in pancreatitis Sprague-Dawley rat peritoneal fluid at 30 mg/kg, iv after 30 mins.
Data set [3] can be described thus: Tmax in pancreatitis Sprague-Dawley rat blood at 30 mg/kg, iv after 30 mins.
A short description of data set [4]: Tmax in pancreatitis Sprague-Dawley rat peritoneal fluid at 30 mg/kg, iv after 30 mins.
Data set [5] in a line: Clearance in pancreatitis Sprague-Dawley rat blood at 30 mg/kg, iv after 30 mins.
Data set [6] can be described thus: Half life in pancreatitis Sprague-Dawley rat blood at 30 mg/kg, iv after 30 mins.
A short description of data set [7]: Half life pancreatitis Sprague-Dawley rat peritoneal fluid at 30 mg/kg, iv after 30 mins.
The nature of data set [8]: Selectivity ratio of AUC in pancreatitis Sprague-Dawley rat peritoneal fluid to AUC in pancreatitis Sprague-Dawley rat blood at 30 mg/kg, iv after 30 mins. The following applies: read-out: Ratio AUC.

The term Cmax denotes the highest concentration seen after dosing. For orientation: Tmax means the time at which the peak concentration occurs. By clearance is commonly meant a measure of how efficiently the substance is removed, as volume per time. One may read the half-life as how long it takes for the measured level to halve. A higher half-life goes with slow decline. For the compound `C[C@@H](O)[C@H]1C(=O)N2C(C(=O)O)=C(SCCN=CN)C[C@H]12` [IMIPENEM ANHYDROUS], the Cmax in data set [1] was found to be 53.9 µg/mL; in data set [2], 51.8 µg/mL. The figures for the Tmax in data set [3] and in data set [4] were 35 min and 36.7 min, respectively. In data set [5], this compound gave a clearance of 17 mL/min/kg. The figures for the half-life in data set [6] and in data set [7] were 17.3 min and 17.6 min, respectively. Besides, the Kp at 0.5 h in data set [8] is 1.08.
